Measurements as given in PMC6906431, “Selective small molecule PARG inhibitor causes replication fork stalling and cancer cell death” (Nature Communications, 2019).
Values joined by “and” are separate entries in the source; they are usually repeats but may differ in a detail not shown here. Equal values may be shown once.

Columns and labels:
PC3 cells [1] = assay: Sulforhodamine B (SRB) cytotoxicity assay; conditions: Homo sapiens, PC-3, 72 h
[2] = Sulforhodamine B (SRB) cytotoxicity assay; conditions: human, PC3 cells, Viability; for viability at 72 h, 1.95 µM: log [concentration] μM 0.291; for viability at 72 h, 3.9 µM: log [concentration] μM 0.592; for viability at 72 h, 7.8 µM: log [concentration] μM 0.893; for viability at 72 h, 15.6 µM: log [concentration] μM 1.194; for viability at 72 h, 31.3 µM: log [concentration] μM 1.495; for viability at 72 h, 62.5 µM: log [concentration] μM 1.796; for viability at 72 h, 125 µM: log [concentration] μM 2.097; for viability at 72 h, 250 µM: log [concentration] μM 2.398; for viability at 72 h, 500 µM: log [concentration] μM 2.699; for viability at 72 h, 0.98 µM: log [concentration] μM -0.01; for viability at 72 h, 0.49 µM: log [concentration] μM -0.312; for viability at 72 h, 0.244 µM: log [concentration] μM -0.613
PC3 cells [3] = assay: Immunoblot of HMW/LMW PARP1 in chromatin fractions; format: cell-based, human; conditions: normalized to DMSO = 1, IR 7 Gy, replicates
Protocol: To identify suitable cell lines to test PARGi, we evaluated PARG protein expression patterns on a panel of prototypic cancer cell lines. Cells were fractionated into cytoplasmic, nuclear and chromatin, and then PARG expression and localization were evaluated using an anti-PARG antibody (Fig. 4a). A varying level of PARG was detected in three cellular compartments. In prostate adenocarcinoma (PC3) and breast mammary epithelial (MCF-7) cells, PARG level was the highest in the cytoplasm, followed by the nucleus, with the lowest seen in the chromatin fraction. […] The PC3 cell line, with one of the highest levels of PARG expression, was selected for our initial PARGi testing. PC3 cells were treated with either DMSO or JA2131 for 2 h, then exposed to 7 Gy of IR and allowed to recover for a designated time period before harvesting and cell fractionation. Chromatin fractions of the cell lysates were analyzed by immunoblotting with PARP1 specific antibody (Fig. 4b), and the PARylation states of PARP1 were monitored as a marker for PARG inhibition. […] In these cells, PARylated PARP1 in response to PARG inhibition appeared as a discrete HMW (DHMW) proteins with limited smearing, as observed previously. […] To assess whether DHMW was due to PARylation and not any other post-translational modifications, chromatin fractions of the PARGi-treated PC3 cell-lysates were treated with purified PARG, followed by anti-PARP1 western blotting. This led to the restoration of LMW PARP1, indicating PARylation was indeed causing the DHMW (Fig. 4c, d). Thus, a dynamic equilibrium between DHMW and LMW nuclear PARP1 exists in cells, and PARGi shifts this equilibrium towards DHMW.
Fig. 4 JA2131 induces hyperPARylation of PARP1. a Subcellular PARG protein expression patterns in cultured cells. […] Chromatin bound cell-extracts were analyzed with anti-PARP1 antibody (upper panel) followed by probing with total Histone H2AX (t-H2AX, lower panel) as the loading control. c DMSO or 2131-treated PC3 cells were irradiated and recovered for 2 h as above, chromatin fractions were then incubated with or without purified PARG enzyme (±PARG) for 30 min at 37 °C then immunoblotted with anti-PARP1 (upper panel) and then with anti-histone H3 (lower panel) as loading control. d Quantitative analysis of western blot of b, where expression of PARP1 levels in DMSO treated was normalized to 1. […]

[4] = chromatin fraction incubated with purified PARG (+)

`Cn1c(=S)c2[nH]c(SCCN3CCOCC3)nc2n(C)c1=O` [JA2131] showed an IC50 (PC3 cells [1]; with 7 Gy IR) of 41.6 ± 3 µM, an IC50 (PC3 cells [1]; without IR) of 33 ± 2.4 µM and a viability at 72 h, 1.95 µM ([2]; +IR 7 Gy) of 104%. For the same compound, the viability at 72 h, 3.9 µM ([2]; +IR 7 Gy) was 99.5%, the viability at 72 h, 7.8 µM ([2]; +IR 7 Gy) was 103% and the viability at 72 h, 15.6 µM ([2]; +IR 7 Gy) was 96.6%. The viability at 72 h, 31.3 µM ([2]; +IR 7 Gy) was 76.7%, the viability at 72 h, 62.5 µM ([2]; +IR 7 Gy) was 32.5% and the viability at 72 h, 125 µM ([2]; +IR 7 Gy) was 13.6%. It also gave a viability at 72 h, 250 µM ([2]; +IR 7 Gy) of 16.8%, a viability at 72 h, 500 µM ([2]; +IR 7 Gy) of 13% and a viability at 72 h, 0.98 µM ([2]; +IR 7 Gy) of 102%. It also gave a viability at 72 h, 0.49 µM ([2]; +IR 7 Gy) of 100%, a viability at 72 h, 0.244 µM ([2]; +IR 7 Gy) of 100% and a viability at 72 h, 1.95 µM ([2]; without IR) of 97.5%. It also gave a viability at 72 h, 3.9 µM ([2]; without IR) of 97.3%, a viability at 72 h, 7.8 µM ([2]; without IR) of 94.1% and a viability at 72 h, 15.6 µM ([2]; without IR) of 88.1%. It also gave a viability at 72 h, 31.3 µM ([2]; without IR) of 57.2%, a viability at 72 h, 62.5 µM ([2]; without IR) of 6.73% and a viability at 72 h, 125 µM ([2]; without IR) of 4.07%. It also gave a viability at 72 h, 250 µM ([2]; without IR) of 4.3%, a viability at 72 h, 500 µM ([2]; without IR) of 4.21% and a viability at 72 h, 0.98 µM ([2]; without IR) of 99.2%. The viability at 72 h, 0.49 µM ([2]; without IR) was 98.7%, the viability at 72 h, 0.244 µM ([2]; without IR) was 100% and the “HMW PARP1” value (PC3 cells [3]; [4]) was 0.2746 and 0.8185 and 0.3259. The “LMW PARP1” value (PC3 cells [3]; [4]) was 1.147 and 1.092 (2×), the “HMW PARP1” value (PC3 cells [3]; without added purified PARG) was 0.6751 and 1.387 and 4.419 and the “LMW PARP1” value (PC3 cells [3]; without added purified PARG) was 0.7041 and 0.9592 (2×).
